Laboratory results from publication PMC6308944, “Anti-Candida albicans Activity of Thiazolylhydrazone Derivatives in Invertebrate and Murine Models” (Journal of Fungi, 2018).

How the values were obtained:
[1] = tested on: Candida albicans clinical isolates; experiment: MIC, broth microdilution, clinical isolates
[2] = tested on: Candida parapsilosis isolates; experiment: MIC, broth microdilution, clinical isolates
[3] = tested on: Candida glabrata clinical isolates; experiment: MIC, broth microdilution, clinical isolates; conditions: for MIC50 / MIC90 / MIC: Nakaseomyces glabratus; for susceptibility of isolates according to CLSI M27-S4: all C. glabrata clinical isolates
[4] = tested on: Cryptococcus neoformans clinical isolates; experiment: MIC, broth microdilution, clinical isolates
[5] = tested on: C. albicans (DAY-185); experiment: MIC, broth microdilution (CLSI M27-A3), reference isolate; conditions: Candida albicans, 48 h
[6] = tested on: C. albicans (CAN14); experiment: as above; conditions: Candida albicans
[7] = tested on: C. krusei (ATCC6258); experiment: as above; conditions: Pichia kudriavzevii
[8] = tested on: C. glabrata (ATCC90030); experiment: as above; conditions: Nakaseomyces glabratus
[9] = tested on: C. parapsilosis (ATCC22019); experiment: as above; conditions: Lodderomyces parapsilosis
[10] = tested on: C. tropicalis (ATCC13803); experiment: as above; conditions: Candida tropicalis
[11] = tested on: C. dublinensis (MYA-646); experiment: as above; conditions: Candida dubliniensis
[12] = tested on: C. neoformans (H99); experiment: as above; conditions: Cryptococcus neoformans
[13] = tested on: C. albicans CAN14; experiment: Murine model of oral candidiasis; type: in vivo, C57BL/6 mice; conditions: 600 IU, into the mouth every 12 h for 4 days, immunosuppressed mice
[14] = tested on: C. albicans CAN14; experiment: Murine model of systemic candidiasis; type: in vivo, C57BL/6 mice; conditions: 10 mg/kg intraperitoneally every 12 h for 5 days
Protocol: Female mice were used in the oral and systemic candidiasis model.
The murine model of systemic candidiasis was established according to the protocol previously described by [16], with modifications. […] Treatments to mice, performed intraperitoneally, were started 3 h after infection and persisted every 12 h for 5 days. […] All mice were sacrificed by cervical dislocation after 5 days and the kidneys were removed, observed macroscopically for lesions and colonies, weighed, measured and homogenized in PBS. The homogenates were serially diluted and plated on Sabouraud medium plates. Plates were incubated at 30 °C for 48 h and the fungal load was expressed as the ratio of CFU/g of kidney.
A p value ≤ 0.05 was considered significant. Statistical analysis of results of murine tests used Newman–Keuls Multiple and the Student’s t-test using GraphPad Prism, a p-value ≤ 0.05 was considered significant.

[15] = Candida albicans, C. albicans clinical isolate 1
[16] = Candida albicans, C. albicans clinical isolate 02A
[17] = Candida albicans, C. albicans clinical isolate 02B
[18] = Candida albicans, C. albicans clinical isolate 6
[19] = Candida albicans, C. albicans clinical isolate 7
[20] = Candida albicans, C. albicans clinical isolate 9
[21] = Candida albicans, C. albicans clinical isolate 10
[22] = Candida albicans, C. albicans clinical isolate 11
[23] = Candida albicans, C. albicans clinical isolate 13
[24] = nine C. albicans clinical isolates
[25] = Lodderomyces parapsilosis, C. parapsilosis isolate 6901
[26] = Lodderomyces parapsilosis, C. parapsilosis isolate 6917
[27] = Lodderomyces parapsilosis, C. parapsilosis isolate 6933
[28] = Lodderomyces parapsilosis, C. parapsilosis isolate 7449
[29] = Lodderomyces parapsilosis, C. parapsilosis isolate 7585
[30] = Lodderomyces parapsilosis, C. parapsilosis isolate 7652
[31] = Lodderomyces parapsilosis, C. parapsilosis isolate 7839
[32] = Lodderomyces parapsilosis, C. parapsilosis isolate 7970A
[33] = Lodderomyces parapsilosis, C. parapsilosis isolate 8044
[34] = Lodderomyces parapsilosis, C. parapsilosis isolate 8662
[35] = C. glabrata clinical isolate 6922
[36] = C. glabrata clinical isolate 6927
[37] = C. glabrata clinical isolate 6931
[38] = C. glabrata clinical isolate 6932
[39] = C. glabrata clinical isolate 6943
[40] = C. glabrata clinical isolate 7110
[41] = C. glabrata clinical isolate 7221
[42] = C. glabrata clinical isolate 7255
[43] = C. glabrata clinical isolate 7815
[44] = C. glabrata clinical isolate 7871
[45] = C. neoformans clinical isolate 27JF
[46] = C. neoformans clinical isolate 28JF
[47] = C. neoformans clinical isolate 93
[48] = C. neoformans clinical isolate 94
[49] = C. neoformans clinical isolate 646B
[50] = C. neoformans clinical isolate 975
[51] = C. neoformans clinical isolate 9220
[52] = C. neoformans clinical isolate 9273
[53] = C. neoformans clinical isolate 10131
[54] = C. neoformans clinical isolate 10211
[55] = C. neoformans clinical isolate 10264
[56] = C. neoformans clinical isolate 10335
[57] = C. neoformans clinical isolate 10379
[58] = C. neoformans clinical isolate 41292
[59] = C. neoformans clinical isolate 41295
[60] = C. neoformans clinical isolate 41296
[61] = C. neoformans clinical isolate 41297
[62] = C. neoformans clinical isolate 41298
[63] = C. neoformans clinical isolate 41299
[64] = C. neoformans clinical isolate 90896
[65] = C. neoformans clinical isolate 92868
[66] = C. neoformans clinical isolate BF113
[67] = C. neoformans clinical isolate BF114
[68] = C. neoformans clinical isolate C31
[69] = C. neoformans clinical isolate F10
[70] = C. neoformans clinical isolate RN01
[71] = C. neoformans clinical isolate WP

C[C@@H]1[C@H](O)[C@@H](C)/C=C/C=C/C=C/C=C/C=C/C=C/C=C/[C@H](O[C@@H]2O[C@H](C)[C@@H](O)[C@H](N)[C@@H]2O)C[C@@H]2O[C@](O)(C[C@@H](O)C[C@@H](O)[C@H](O)CC[C@@H](O)C[C@@H](O)CC(=O)O[C@H]1C)C[C@H](O)[C@H]2C(=O)O [Amphotericin B]
sensitive: susceptibility of isolates according to CLSI M27-S4 [3]
8 µg/mL: MIC [7]
0.25 µg/mL: MIC50 ([1]; Candida albicans) | MIC90 ([1]; Candida albicans) | MIC [1, 15] | MIC [1, 16] | MIC [1, 17] | MIC [1, 20] | MIC [1, 21] | MIC90 [1, 24] | MIC50 ([2]; Lodderomyces parapsilosis) | MIC [2, 26] | MIC [2, 29] | MIC [2, 30] | MIC [2, 32] | MIC [2, 34] | MIC90 [4] | MIC [4, 45] | MIC [4, 47] | MIC [4, 48] | MIC [4, 65] | MIC [4, 69]
2 µg/mL: MIC [8] | MIC [9]
0.125 µg/mL: MIC [1, 19] | MIC [1, 22] | MIC [1, 23] | MIC50 [4] | MIC [4, 46] | MIC [4, 49] | MIC [4, 50] | MIC [4, 51] | MIC [4, 52] | MIC [4, 53] | MIC [4, 54] | MIC [4, 55] | MIC [4, 56] | MIC [4, 57] | MIC [4, 58] | MIC [4, 59] | MIC [4, 61] | MIC [4, 62] | MIC [4, 63] | MIC [4, 64] | MIC [4, 68] | MIC [4, 70]
0.5 µg/mL: MIC [1, 18] | MIC90 ([2]; C. parapsilosis isolates) | MIC90 ([2]; Lodderomyces parapsilosis) | MIC [2, 25] | MIC [2, 27] | MIC [2, 28] | MIC [2, 31] | MIC [2, 33] | MIC50 [3] | MIC [3, 35] | MIC [3, 37] | MIC [3, 38] | MIC [3, 40] | MIC [3, 41] | MIC [3, 43]
1 µg/mL: MIC90 [3] | MIC [3, 36] | MIC [3, 39] | MIC [3, 42] | MIC [3, 44] | MIC [4, 60] | MIC [4, 66] | MIC [4, 71] | MIC [5] | MIC [6] | MIC [11]
4 µg/mL: MIC [10] | MIC [12]
< 0.0625 µg/mL: MIC [4, 67]

C[C@@H]1[C@H](O)[C@@H](C)/C=C/C=C/CC/C=C/C=C/C=C/C=C/C(O[C@H]2O[C@H](C)[C@@H](O)[C@H](N)[C@@H]2O)CC2O[C@](O)(CC(O)C(O)CCC(O)CC(O)CC(O)CC(=O)O[C@H]1C)CC(O)C2C(=O)O (some centres unmarked) [nystatin]
lower: fungal load on the tongue (CFU) versus untreated control [13]

OC(Cn1cncn1)(Cn1cncn1)c1ccc(F)cc1F [Fluconazole]
0.125 µg/mL: MIC [6]
8 µg/mL: MIC [3, 39] | MIC50 [4] | MIC [4, 45] | MIC [4, 46] | MIC [4, 48] | MIC [4, 53] | MIC [4, 56] | MIC [4, 57] | MIC [4, 58] | MIC [4, 61] | MIC [4, 62] | MIC [4, 65] | MIC [4, 71] | MIC [9]
4 µg/mL: MIC [1, 16] | MIC [2, 30] | MIC [4, 47] | MIC [4, 54] | MIC [4, 55] | MIC [4, 63] | MIC [4, 68] | MIC [4, 69] | MIC [4, 70] | MIC [8]
16 µg/mL: MIC90 ([2]; C. parapsilosis isolates) | MIC90 ([2]; Lodderomyces parapsilosis) | MIC [2, 28] | MIC [2, 34] | MIC90 [4] | MIC [4, 60] | MIC [4, 66]
sensitive: susceptibility of isolates according to CLSI M27-S4 [3]
0.25 µg/mL: MIC50 ([2]; Lodderomyces parapsilosis) | MIC [2, 25] | MIC [2, 26] | MIC [2, 27] | MIC [2, 29] | MIC [2, 33]
0.5 µg/mL: MIC [1, 20] | MIC [1, 21] | MIC [2, 31] | MIC [3, 37] | MIC [3, 38] | MIC [3, 41] | MIC [5]
64 µg/mL: MIC [4, 67] | MIC [7]
32 µg/mL: MIC [4, 59] | MIC [4, 64]
2.0 µg/mL: MIC90 [1, 24]
1 µg/mL: MIC50 ([1]; Candida albicans) | MIC [1, 15] | MIC [1, 18] | MIC [1, 19] | MIC [1, 22] | MIC [1, 23] | MIC [2, 32] | MIC [3, 40] | MIC [4, 49] | MIC [11]
2 µg/mL: MIC90 ([1]; Candida albicans) | MIC [1, 17] | MIC50 [3] | MIC90 [3] | MIC [3, 35] | MIC [3, 36] | MIC [3, 42] | MIC [3, 43] | MIC [3, 44] | MIC [4, 50] | MIC [4, 51] | MIC [4, 52] | MIC [12]
significant reduction: fungal load in the kidneys (CFU/g) versus untreated control [14]
> 64 µg/mL: MIC [10]
